Converted amounts (≈) assume the structure as drawn.
Columns and labels:
E. coli strain DH5α = assay: Minimal inhibitory concentration (MIC) against E. coli, two fold serial dilutions in 2xYT broth; format: cell-based; conditions: Escherichia coli; E. coli strain DH5α; 2xYT broth, 37° C., 18 hours; lowest drug concentration that inhibited visible growth; read-out: MIC (E. coli)
Method: (§1) Where MIC values are quoted for the compounds of the examples, those results were obtained by the method described in the Biological Example.
(§2) Minimal inhibitory concentrations (MIC) of inhibitors against E. coli strain DH5α (Genotype; F-φ80d/acZΔM 15Δ(lacZYA-argF)U 169 deoR recA1 endA1 hsdR17(rk^−, mk^+)phoA supE44λ^−thi-1 gyrA96 re/A1) obtained from GibcoBRL Life Technologies, or Staphylococcus capitis (American Type Culture Collection number 35661) were determined as follows. Stock solutions of each test compound were prepared by dissolution of the compound in dimethylsulfoxide at 10 mM. For the determination of the minimal inhibitory concentration, two fold serial dilutions were prepared in 2×YT broth (typtone 16 g/l, yeast extract 10 g/l, sodium chloride 5 g/l obtained from BIO 101 Inc, 1070 Joshua Way, Vista, Calif. 92083, USA) to yield 0.05 ml compound-containing medium per well. Inocula were prepared from cultures grown overnight in 2×YT broth at 37° C. Cell densities were adjusted to absorbance at 660 nm (a660)=0.1; the optical density-standardised preparations were diluted 1:1000 in 2×YT broth; and each well inoculated with 0.05 ml of the diluted bacteria. Microtiter plates were incubated at 37° C. for 18 hours in a humidified incubator. The MIC (μM) was recorded as the lowest drug concentration that inhibited visible growth.

[1] = test system: Staphylococcus capitis (American Type Culture Collection number 35661); assay: Minimal inhibitory concentration (MIC) against Staphylococcus capitis, two fold serial dilutions in 2xYT broth; format: cell-based; conditions: ATCC35661, Staphylococcus capitis ATCC 35661, 37° C., 18 hours, lowest drug concentration that inhibited visible growth, read-out: MIC (S. capitis)
Method: as §1, §2

SMILES	MIC (E. coli strain DH5α)	MIC [1]
CCCC[C@H](CN(O)C=O)C(=O)N[C@H](C(=O)c1ccc(N2CCN(C3=NCCCN3)CC2)cc1)C(C)(C)C [Example 29, 2(R)-[(N-Formyl-N-hydroxyamino)-methyl]-hexanoic Acid-(2′,2′-dimethyl-1′(S)-{4-[4-(1,4,5,6-tetrahydropyrimidin-2-yl)-piperazin-1-yl]-benzoyl}-propyl)amide]	50 µM (≈ 26.4 µg/mL)	6.25 µM (≈ 3.3 µg/mL)
CCCC[C@H](CN(O)C=O)C(=O)N[C@H](C(=O)c1ccc(N(CCC)CCC)cc1)C(C)(C)C [Example 30, 2(R)-[(N-Formyl-N-hydroxyamino)-methyl]-hexanoic Acid-(1′(S)-(4-dipropylaminobenzoyl)-2′,2′-dimethylpropyl)amide]	100 µM (≈ 46.2 µg/mL)	3.1 µM (≈ 1.43 µg/mL)

The next molecules have a lower MIC (E. coli strain DH5α) than those just listed; values first:

MIC (E. coli strain DH5α)	MIC [1]	SMILES
6.25 µM (≈ 2.88 µg/mL)	6.25 µM (≈ 2.88 µg/mL)	CCCC[C@H](CN(O)C=O)C(=O)N[C@H](C(=O)c1ccc(N2CCN(C)CC2)cc1)C(C)(C)C [Example 27, 2(R)-[(N-Formyl-N-hydroxyamino)-methyl]-hexanoic Acid-(2′,2′-dimethyl-1′(S)-[4-(4-methylpiperazin-1-yl)benzoyl]-propyl)amide]
12.5 µM (≈ 6.56 µg/mL)	1.6 µM (≈ 0.839 µg/mL)	CCCC[C@H](CN(O)C=O)C(=O)N[C@H](C(=O)c1ccc(N2CCN(c3ncccn3)CC2)cc1)C(C)(C)C [Example 28, 2(R)-[(N-Formyl-N-hydroxyamino)-methyl]-hexanoic Acid-(2′,2′-dimethyl-1′(S)-[4-(4-pyrimidin-2-yl-piperazin-1-yl)-benzoyl]-propyl)amide]
12.5 µM (≈ 5.24 µg/mL)	3.1 µM (≈ 1.3 µg/mL)	CCCC[C@H](CN(O)C=O)C(=O)N[C@H](C(=O)c1ccc(NCCC)cc1)C(C)(C)C [Example 31, 2(R)-[(N-Formyl-N-hydroxyamino)-methyl]-hexanoic Acid-(2′,2′-dimethyl-1′(S)-(4-propylaminobenzoyl)-propyl)amide]
